The results in this text go back to PubChem BioAssay (NCI).

Test systems include MALME-3M melanoma; SF-268 CNS; BT-549 breast; NCI-H23 lung; NCI-H460 lung; NCI/ADR-RES ovarian; IGROV1 ovarian; ACHN renal; OVCAR-8 ovarian; TK-10 renal.
What all share (assay): NCI-60 cell line screen, 48 h

Molecules are shown by their SMILES.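 Five compound concentrations were applied to cells in 96-well plates for 48 hours; endpoints were derived by simple linear interpolation of the resulting dose-response curve. GI50 = concentration required for 50% inhibition of growth. At the TGI there is no net growth.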 Some results are limits rather than exact numbers.

Consider `O=C(Nc1ccc(Cl)cc1F)c1ccccc1O`, for which the GI50 in the experiment on MALME-3M melanoma was 2.26 µM; in the experiment on SF-268 CNS, 3.63 µM; with BT-549 breast, 2.88 µM; in the experiment on NCI-H23 lung, 2.12 µM; in the experiment on NCI-H460 lung, 3.21 µM; with NCI/ADR-RES ovarian, 2.44 µM. Further, the GI50 in the experiment with IGROV1 ovarian is 1.43 µM; in the experiment on ACHN renal, 2.36 µM; in the experiment on OVCAR-8 ovarian, 3.61 µM; in the experiment with TK-10 renal, 4.54 µM. For the same molecule, the TGI is 8.8 µM in the experiment with MALME-3M melanoma; greater than 100 µM with SF-268 CNS; 9.88 µM with BT-549 breast; 6.13 µM with NCI-H23 lung; 19.7 µM in the experiment on NCI-H460 lung; 7.61 µM in the experiment with NCI/ADR-RES ovarian. Further, the TGI is 64.3 µM in the experiment on IGROV1 ovarian, 7.54 µM in the experiment on ACHN renal, greater than 100 µM in the experiment with OVCAR-8 ovarian and 47.1 µM in the experiment on TK-10 renal.
In the case of `CC(CCC=O)CCOCc1ccccc1` (configuration not stated), the TGI in the experiment with MALME-3M melanoma, with SF-268 CNS, in the experiment on BT-549 breast, in the experiment with NCI-H23 lung, in the experiment with NCI-H460 lung and in the experiment on NCI/ADR-RES ovarian was greater than 100 µM each time. For the same molecule, the TGI in the experiment with IGROV1 ovarian, in the experiment with ACHN renal, with OVCAR-8 ovarian and with TK-10 renal was greater than 100 µM in each case.
For the molecule `O=c1c2sc(=S)n(-c3ccc(F)cc3)c2ncn1Cc1ccc(F)cc1F`, the GI50 is greater than 100 µM with MALME-3M melanoma; 76 µM in the experiment with SF-268 CNS; greater than 100 µM in the experiment with BT-549 breast; greater than 100 µM in the experiment on NCI-H23 lung; greater than 100 µM with NCI-H460 lung; greater than 100 µM in the experiment on NCI/ADR-RES ovarian. The GI50 with IGROV1 ovarian was greater than 100 µM; in the experiment with ACHN renal, greater than 100 µM; with OVCAR-8 ovarian it was greater than 100 µM; with TK-10 renal, 96 µM. The TGI with MALME-3M melanoma, in the experiment with SF-268 CNS, with BT-549 breast, with NCI-H23 lung, in the experiment on NCI-H460 lung and with NCI/ADR-RES ovarian was greater than 100 µM throughout. The TGI in the experiment with IGROV1 ovarian, with ACHN renal, with OVCAR-8 ovarian and in the experiment on TK-10 renal was greater than 100 µM throughout.
On to `CC(C)=CCNc1ncnc2c1ncn2C1OC(CO)C(O)C1O` (configuration not stated), for which the GI50 with MALME-3M melanoma was 226 µM; in the experiment with SF-268 CNS it was 2 µM; in the experiment on BT-549 breast it was 0.57 µM; with NCI-H23 lung, 2.81 µM; in the experiment on NCI-H460 lung, 4.02 µM; in the experiment with NCI/ADR-RES ovarian, 1.5 µM. In addition, the GI50 was 0.573 µM in the experiment with IGROV1 ovarian, 0.987 µM in the experiment on ACHN renal, 0.496 µM in the experiment with OVCAR-8 ovarian and 1.04 µM in the experiment on TK-10 renal. In addition, the TGI was greater than 1000 µM in the experiment with MALME-3M melanoma; greater than 432 µM in the experiment on SF-268 CNS; 2.8 µM in the experiment on BT-549 breast; 125 µM with NCI-H23 lung; greater than 345 µM in the experiment on NCI-H460 lung; 52.1 µM in the experiment with NCI/ADR-RES ovarian. Besides, the TGI in the experiment with IGROV1 ovarian is 19.2 µM; with ACHN renal, greater than 526 µM; with OVCAR-8 ovarian, 3.34 µM; in the experiment with TK-10 renal it was 85.6 µM.
For the molecule `CC(C)=CC/C=C(/C)[C@H]1CC[C@]2(C)[C@@H]1CC[C@@H]1[C@@]3(C)CCCNC(C)(C)[C@@H]3CC[C@]12C`, the GI50 in the experiment with MALME-3M melanoma was 1.97 µM; in the experiment with SF-268 CNS it was 3.82 µM; in the experiment on BT-549 breast it was 12.4 µM; in the experiment with NCI-H23 lung, 3.17 µM; in the experiment with NCI-H460 lung, 2.11 µM; in the experiment with NCI/ADR-RES ovarian, 2.28 µM. Besides, the GI50 in the experiment on IGROV1 ovarian was 1.87 µM; in the experiment on ACHN renal it was 3.37 µM; in the experiment on TK-10 renal, 10.6 µM. Besides, the TGI with MALME-3M melanoma turned out to be 4.69 µM; in the experiment on SF-268 CNS, 16.7 µM; with BT-549 breast, 32.5 µM; in the experiment with NCI-H460 lung, 4.4 µM; with NCI/ADR-RES ovarian, 5.07 µM; in the experiment on IGROV1 ovarian it was 3.72 µM. Also, the TGI in the experiment on ACHN renal was 12.4 µM; with TK-10 renal it was 27 µM.
For `CC(O)CCC(=O)c1ccoc1` (configuration not stated), the TGI with MALME-3M melanoma is greater than 8380 µM; with SF-268 CNS, greater than 10000 µM; in the experiment on BT-549 breast, greater than 10000 µM; with NCI-H23 lung it was greater than 10000 µM; in the experiment with NCI-H460 lung it was greater than 10000 µM; with NCI/ADR-RES ovarian, greater than 9750 µM. Moreover, the TGI in the experiment on IGROV1 ovarian, with ACHN renal, in the experiment on OVCAR-8 ovarian and in the experiment with TK-10 renal was greater than 10000 µM each time.
Regarding `O=C(OC(CNc1cc(=O)n(Cc2ccccc2)c(=O)n1Cc1ccccc1)CN1CCCC1)c1ccccc1` (configuration not stated), the GI50 in the experiment with MALME-3M melanoma is greater than 100 µM; in the experiment with SF-268 CNS, greater than 100 µM; with BT-549 breast, 0.781 µM; in the experiment with NCI-H23 lung it was greater than 100 µM; in the experiment with NCI-H460 lung, greater than 100 µM; in the experiment with NCI/ADR-RES ovarian, greater than 100 µM. Besides, the GI50 in the experiment with IGROV1 ovarian, in the experiment on ACHN renal, with OVCAR-8 ovarian and in the experiment on TK-10 renal was greater than 100 µM throughout. Also, the TGI in the experiment on MALME-3M melanoma, with SF-268 CNS, in the experiment with BT-549 breast, in the experiment with NCI-H23 lung, with NCI-H460 lung and in the experiment on NCI/ADR-RES ovarian was greater than 100 µM each time. The TGI in the experiment with IGROV1 ovarian, in the experiment with ACHN renal, in the experiment on OVCAR-8 ovarian and in the experiment with TK-10 renal was greater than 100 µM throughout.
In the case of `NC(=O)NC1C(c2ccccc2)=C1c1ccccc1`, the TGI in the experiment on MALME-3M melanoma turned out to be 61 µM; in the experiment with SF-268 CNS it was 32 µM; with BT-549 breast, 26.7 µM; in the experiment on NCI-H23 lung, 61.4 µM; in the experiment on NCI-H460 lung it was 36 µM; in the experiment with NCI/ADR-RES ovarian, 27 µM. Moreover, the TGI amounted to 28.4 µM with IGROV1 ovarian, 31.2 µM in the experiment on ACHN renal, 25.5 µM in the experiment with OVCAR-8 ovarian and 53.7 µM in the experiment with TK-10 renal.
Take `Cc1ccc(C)c(C2=C(c3cn(C)c4ccccc34)C(=O)NC2=O)c1`: the GI50 was greater than 25 µM in the experiment with MALME-3M melanoma; greater than 25 µM with SF-268 CNS; greater than 25 µM in the experiment with BT-549 breast; greater than 25 µM with NCI-H23 lung; greater than 17.4 µM in the experiment on NCI-H460 lung; greater than 25 µM with NCI/ADR-RES ovarian. Further, the GI50 in the experiment with IGROV1 ovarian is 24.8 µM; in the experiment with ACHN renal it was 9.15 µM; with OVCAR-8 ovarian, greater than 24.2 µM; in the experiment with TK-10 renal, greater than 25 µM. Moreover, the TGI with MALME-3M melanoma, in the experiment with SF-268 CNS, with BT-549 breast, in the experiment with NCI-H23 lung, in the experiment on NCI-H460 lung and in the experiment with NCI/ADR-RES ovarian was greater than 25 µM in each case. For the same molecule, the TGI in the experiment on IGROV1 ovarian, with ACHN renal, in the experiment with OVCAR-8 ovarian and with TK-10 renal was greater than 25 µM throughout.
